In paper PMC3775607 (Chembiochem : a European journal of chemical biology, 2012):

Tests used:
[1] = target: T1, p38α (Mus musculus, UniProt P47811); experiment: competition with covalent DRS probe […] at […], in-gel fluorescence; format: binding
[2] = target: T1, p38α; experiment: radiometric kinase assay with GST-ATF2; format: biochemical

T1 sequence (P47811 2-360): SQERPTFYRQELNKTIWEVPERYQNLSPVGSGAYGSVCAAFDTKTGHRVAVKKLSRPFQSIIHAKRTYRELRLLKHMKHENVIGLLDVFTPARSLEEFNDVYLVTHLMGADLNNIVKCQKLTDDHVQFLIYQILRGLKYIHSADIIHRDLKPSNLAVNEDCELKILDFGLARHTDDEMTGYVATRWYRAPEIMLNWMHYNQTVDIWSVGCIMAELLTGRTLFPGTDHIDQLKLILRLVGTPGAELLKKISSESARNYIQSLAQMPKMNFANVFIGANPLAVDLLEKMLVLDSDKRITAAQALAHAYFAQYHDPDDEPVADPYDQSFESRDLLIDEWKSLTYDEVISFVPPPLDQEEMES

IC50 [2] [µM] | Compound | competition with covalent DRS probe 3 at 200 μM, in-gel fluorescence [1]
 | O=C(/C=C/c1ccc(O)c(O)c1)OCCc1ccccc1 [CAPE, caffeic acid phenethyl ester] | rooperol shows the strongest inhibition, followed closely by the honey bee propolis-derived caffeic acid phenethyl ester (CAPE
18.6 | Oc1ccc(C#CC/C=C/c2ccc(O)c(O)c2)cc1O [rooperol] | 
